What was measured:
[1] = biological target: T1, Na+-dependent bile acid transport system (Oryctolagus cuniculus, UniProt Q28727); experiment: Inhibition of Na+-dependent [3H]-taurocholate uptake in rabbit ileum cuticular layer membrane vesicles; type: biochemical; details: Table 1, 50 μM taurocholate, incubation normally 1 minute
T1 construct: Cuticular layer membrane vesicles were prepared from ileum cells by the so-called Mg^2+ precipitation method; from tissue; host or cells: terminal ileum of male New Zealand rabbits (brush-border / cuticular layer membrane vesicles)
T1 sequence (Q28727 1-347): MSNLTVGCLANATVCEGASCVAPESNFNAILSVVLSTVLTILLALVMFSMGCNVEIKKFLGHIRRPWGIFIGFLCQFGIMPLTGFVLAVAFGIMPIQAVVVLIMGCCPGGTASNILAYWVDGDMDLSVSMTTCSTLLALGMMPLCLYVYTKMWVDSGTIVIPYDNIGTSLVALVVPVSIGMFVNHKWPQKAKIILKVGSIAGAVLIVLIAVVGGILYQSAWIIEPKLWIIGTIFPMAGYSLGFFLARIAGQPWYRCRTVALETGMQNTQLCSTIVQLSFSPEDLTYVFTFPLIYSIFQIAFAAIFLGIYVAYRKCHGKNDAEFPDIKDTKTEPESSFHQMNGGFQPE
Protocol: The compounds according to the invention were tested in a biotest by determining the inhibition of [^3H]-taurocholate uptake in rabbit ileum cuticular layer membrane vesicles. The inhibitory test was carried out as follows:
1. Preparation of Rabbit Ileum Cuticular Layer Membrane Vesicles
Cuticular layer membrane vesicles were prepared from ileum cells by the so-called Mg^2+ precipitation method. Male New Zealand rabbits (body weight 2 to 2.5 kg) were sacrificed by intravenous injection of 0.5 ml T61®, an aqueous solution of 2.5 mg of tetracaine —HCl, 100 mg of embutramide and 25 mg of mebezonium iodide. The ileum was removed and washed with ice-cold physiological saline. The terminal 7/10th of the ileum (measured in the oral-rectal direction, i.e., the terminal ileum, which contains the active Na^+-dependent bile acid transport system) were used for preparing the cuticular layer membrane vesicles. The intestines were frozen in polymer bags at −80° C. under nitrogen. To prepare the membrane vesicles, the frozen intestines were defrosted in a water bath at 30° C. The mucosa was scraped off and suspended in 60 ml of ice-cold 12 mM TRIS/HCl buffer (pH 7.1)/300 mM mannitol, 5 mM EGTA/10 mg/l phenylmethylsulfonyl fluoride/1 mg/l soybean trypsin inhibitor (32 (U/mg)/0.5 mg/l bovine lung trypsin inhibitor (193 U/mg)/5 mg/l bacitracin. After the mixture had been diluted to 300 ml with ice-cold distilled water, it was homogenized in an Ultraturrax (rod 18, IKA Werk Staufen, Germany) for 3 minutes at 75% of maximum speed, with ice-cooling. After 3 ml of 1 M MgCl2 solution had been added (final concentration 10 mM), the mixture was left to stand at 0° C. for exactly 1 minute. The addition of Mg^2+ causes the cell membranes to aggregate and precipitate with the exception of the cuticular layer membranes. After centrifugation for 15 minutes at 3000×g (5000 rpm, SS-34 rotor), the precipitate was discarded, and the supernatant, which contains the cuticular layer membranes, was centrifuged for 30 minutes at 48,000×g (20,000 rpm, SS-34 rotor). The supernatant was discarded, and the precipitate was rehomogenized in 60 ml of 12 mM TRIS/HCl buffer (pH 7.1)/60 mM mannitol, 5 mM EGTA using a Potter Elvejhem homogenizer (Braun, Melsungen, 900 rpm, 10 strokes). After addition of 0.1 ml of 1 M MgCl2 solution and incubation for 15 minutes at 0° C., the mixture was again centrifuged for 15 minutes at 3000×g. The supernatant was subsequently centrifuged for a further 30 minutes at 48,000×g (20,000 rpm, SS-34 rotor). […]
The uptake of substrates into the above-described cuticular layer membrane vesicles was determined by means of the so-called membrane filtration technique. […]

gallstone-sensitive mice = experiment: Test for gallstone formation (cholesterol gallstone formation, lithogenic diet); type: in vivo; details: male C57L mice, 100 mg/kg/d (0.1% in the feed), 13 weeks, lithogenic diet alone 5/15
Protocol: Test for Gallstone Formation • 1. Test Substance, Dose and Application • Example 9 of Table 1 (=A1) 100 mg/kg/d 0.1% in the feed • 2. Aim
In this test, the cholesterol gallstone formation in gallstone-sensitive mice was investigated. • 3. Materials and Methods • 3.1 Animals and Housing
The experimental animals used are male C57L mice (Jackson Laboratories) with an average body weight of 25-30 g at the beginning of the adaptation.
The animals were randomly divided into 4 groups (n=10, groups 2 and 3 n=15). Starting at the beginning of the treatment, the mice were either fed a standard rodent feed by Altromin (group 1), or a lithogenic diet by Altromin (groups 2-4); this diet was composed as follows: 15% butter, 1% cholesterol, 50% sugar, 20% casein, 0.5% cholic acid, 5% mineral mix, 2.5% vitamin mix, 2% corn oil, corn starch to 100%. The animals were weighed weekly, and the food consumption was determined by continuous weighings before and after, whereby the dose was calculated. • 3.2. Final Examination
After 11 and 13 weeks, respectively, the animals of each group were sacrificed and the gallbladders subsequently prepared. Gallstones in the gallbladder were then recorded. The gallbladder was dissected, the weight was determined, and the composition of the bile and the gallstones was analyzed.

Bio. Test (quotient of the IC50Na values of the reference substance taurochenodesoxycholate (TCDC) and the test substance) [1] | Compound | Frequency of gallstones (n/n) (gallstone-sensitive mice)
0.24 | O=C(NCCCNc1ccccc1[C@@H](Nc1ccccn1)[C@H](c1ccccn1)[C@H](O)c1ccccc1)[C@H](O)[C@@H](O)[C@H](O)[C@H](O)CO [Example 2] | –
0.83 | CC(=O)OC[C@@H](OC(C)=O)[C@@H](OC(C)=O)[C@H](OC(C)=O)[C@@H](OC(C)=O)C(=O)NCCCCCCCCCCC(=O)Nc1ccccc1[C@@H](Nc1ccccn1)[C@H](c1ccccn1)[C@H](O)c1ccccc1 [Example 8] | –
1.78 | O=C(CCCCCCCCCCNC(=O)[C@H](O)[C@@H](O)[C@H](O)[C@H](O)CO)Nc1ccccc1[C@@H](Nc1ccccn1)[C@H](c1ccccn1)[C@H](O)c1ccccc1 [Example 9] | 0/10
0.19 | O=C(CCC(=O)Nc1ccccc1[C@@H](Nc1ccccn1)[C@H](c1ccccn1)[C@H](O)c1ccccc1)NC[C@H](O)[C@@H](O)[C@H](O)[C@H](O)CO [Example 15] | –

Source: patent publication US6897198B2, “Method of treatment with combinations of statin and aryl-substituted propanolamine derivatives” (Aventis Pharma Deutschland GmbH, priority 1998, dated 2005)
